Like-named read-outs stand apart in the source and are kept apart here.
Legend:
[1] = tested on: HCV sub-genomic replicon GS4.3 (HuH-7 hepatoma cells); assay: Quantitation by ELISA of neomycin phosphotransferase II (NPTII) in the HCV sub-genomic replicon, GS4.3; format: cell-based; conditions: Hepatitis C virus, read-out: Replicon EC50
Excerpt: Quantitation by ELISA of the Selectable Marker Protein, Neomycin Phosphotransferase II (NPTII) in the HCV Sub-Genomic Replicon, GS4.3
The HCV sub-genomic replicon (1377/NS3-3′, accession No. AJ242652), stably maintained in HuH-7 hepatoma cells, was created by Lohmann et al. Science 285: 110-113 (1999). The replicon-containing cell culture, designated GS4.3, was obtained from Dr. Christoph Seeger of the Institute for Cancer Research, Fox Chase Cancer Center, Philadelphia, Pa.
GS4.3 cells were maintained at 37° C., 5% CO2, in DMEM (Gibco 11965-092) supplemented with L-glutamine 200 mM (100×) (Gibco25030-081), non-essential amino acids (NEAA)(Biowhittaker 13-114E), heat-inactivated (HI) Fetal Bovine Serum(FBS)(Hyclone SH3007.03) and […] geneticin (G418)(Gibco 10131-035). Cells were sub-divided 1:3 or 4 every 2-3 days.
24 h prior to the assay, GS4.3 cells were collected, counted, and plated in 96-well plates (Costar 3585) at 7500 cells/well in 100 μl standard maintenance medium (above) and incubated in the conditions above. To initiate the assay, culture medium was removed, cells were washed once with PBS (Gibco 10010-023) and 90 μl Assay Medium (DMEM, L-glutamine, NEAA, 10% HI FBS, no G418) was added. Inhibitors were made as a 10× stock in Assay Medium, (3-fold dilutions from 10 μM to […] final concentration, final DMSO concentration 1%), 10 μl were added to duplicate wells, plates were rocked to mix, and incubated as above for 72 h.
An NPTII Elisa kit was obtained from AGDIA, Inc. (Compound direct ELISA test system for Neomycin Phosphotransferase II, PSP 73000/4800). Manufacturer's instructions were followed, with some modifications. 10×PEB-1 lysis buffer was made up to include 500 μM PMSF (Sigma P7626, 50 mM stock in isopropanol). After 72 h incubation, cells were washed once with PBS and 150 μlPEB-1 with PMSF was added per well. Plates were agitated vigorously for 15 minutes, room temperature, then frozen at −70° C. Plates were thawed, lysates were mixed thoroughly, and 100 μl were applied to an NPTII Elisa plate. A standard curve was made. Lysate from DMSO-treated control cells was pooled, serially diluted with PEB-1 with PMSF, and applied to duplicate wells of the ELISA plate, in a range of initial lysate amount of 150 ul-2.5 ul. In addition, 100 μl buffer alone was applied in duplicate as a blank. Plates were sealed and gently agitated at room temperature for 2 h. Following capture incubation, the plates were washed 5×300 μlwith PBS-T (0.5% Tween-20, PBS-T was supplied in the ELISA kit). For detection, a 1× dilution of enzyme conjugate diluent MRS-2 (5×) was made in PBS-T, into which 1:100 dilutions of enzyme conjugates A and B were added, as per instructions. Plates were resealed, and incubated with agitation, covered, room temperature, for 2 h. The washing was then repeated and 100 μlof room temperature TMB substrate was added. After approximately 30 minutes incubation (room temperature, agitation, covered), the reaction was stopped with 50 μl 3M sulfuric acid. Plates were read at 450 nm on a Molecular Devices Versamax plate reader.
Inhibitor effect was expressed as a percentage of DMSO-treated control signal, and inhibition curves were calculated using a 4-parameter equation: y=A+4B-A)/(1+((C/x)^13))), where C is half-maximal activity or EC50.

[2] = molecular target: T1, NS3-NS4 protease (full-length NS3/NS4A-2) (Hepatitis C virus genotype 1a, UniProt P27958); assay: NS3-NS4 protease assay / NS3 inhibition assay (RETS1 substrate, fluorescence kinetic read); format: biochemical; conditions: read-out: NS3-NS4 IC50
T1 construct: Recombinant E. coli or Baculovirus full-length NS3 was diluted to 3.33 μM with assay buffer; made in house; host or cells: E. coli or baculovirus (insect cells)
Description: NS3 complex formation with NS4A-2.
The appropriate amount of NS4A-2 to 8.3 mM in assay buffer was added to equal the volume of NS3 in step 2.1.1 (conversion factor—3.8 mg/272 μL assay buffer). The material was transferred to an eppendorf tube and place in water bath in 4° C. refrigerator.
After equilibration to 4° C., equal volumes of NS3 and NS4A-2 solutions were combined in an eppendorf tube, mix gently with a manual pipettor, and incubate mixture for 15 minutes in the 4° C. water bath.
After 15 minutes at 4° C., the NS3/NS4A-2 eppendorf tube was removed and place it in a room temperature water bath for 10 minutes. NS3/NS4A-2 was alliquoted at appropriate volumes and store at −80° C. (E. coli NS3 run at 2 nM in assay, aliquot at 25 μL. BV NS3 run at 3 nM in assay, aliquot at 30 μL).
Sample compounds were dissolved to 10 mM in DMSO then diluted to 2.5 mM (1:4) in DMSO.
The E. coli. […] Using the manual multichannel pipettor, careful not to introduce bubbles into the plate, add 50 μL assay buffer to wells A01-H01 of a black Costar 96-well polypropylene storage plate.
Using the manual multichannel pipettor, careful not to introduce bubbles into the plate, add 50 μL of diluted NS3/NS4A-2 from step 2.2.6 to wells A02-H12 of plate in step 2.2.7. Using the manual multichannel pipettor, careful not to introduce bubbles into the plate, transfer 25 μL of the wells in drug dilution plate in step 2.2.5 to corresponding wells in assay plate in step 2.2.8. Change tips on multichannel pipettor for each row of compounds transferred. Using the manual multichannel pipettor, careful not to introduce bubbles into the plate, mix the wells from the assay plate in step 2.2.9 by aspirating and dispensing 35 μL of the 75 μL in each well five times. Change tips on multichannel pipettor for each row of wells mixed. Cover plate with a polystyrene plate lid and pre-incubate the plate from step 2.2.10 containing NS3 protease and sample compounds 10 minutes at room temperature. While plate from step 2.2.11 is pre-incubating, dilute RETS1 substrate in a 15 mL polypropylene centrifuge tube.
After the plate in step is done pre-incubating, and using the manual multichannel, add 25 μL of substrate to all wells on the plate. Quickly mix the plate as in step 2.2.10, mixing 65 μL of the 100 μL in the wells.
Read the plate in kinetic mode on the Molecular Devices SpectraMax
IC50s are determined using a four parameter curve fit equation, and converted to Ki's using the following Km's:
where Ki=IC50/(1+[S]/Km))

T1 sequence (P27958 1027-1657): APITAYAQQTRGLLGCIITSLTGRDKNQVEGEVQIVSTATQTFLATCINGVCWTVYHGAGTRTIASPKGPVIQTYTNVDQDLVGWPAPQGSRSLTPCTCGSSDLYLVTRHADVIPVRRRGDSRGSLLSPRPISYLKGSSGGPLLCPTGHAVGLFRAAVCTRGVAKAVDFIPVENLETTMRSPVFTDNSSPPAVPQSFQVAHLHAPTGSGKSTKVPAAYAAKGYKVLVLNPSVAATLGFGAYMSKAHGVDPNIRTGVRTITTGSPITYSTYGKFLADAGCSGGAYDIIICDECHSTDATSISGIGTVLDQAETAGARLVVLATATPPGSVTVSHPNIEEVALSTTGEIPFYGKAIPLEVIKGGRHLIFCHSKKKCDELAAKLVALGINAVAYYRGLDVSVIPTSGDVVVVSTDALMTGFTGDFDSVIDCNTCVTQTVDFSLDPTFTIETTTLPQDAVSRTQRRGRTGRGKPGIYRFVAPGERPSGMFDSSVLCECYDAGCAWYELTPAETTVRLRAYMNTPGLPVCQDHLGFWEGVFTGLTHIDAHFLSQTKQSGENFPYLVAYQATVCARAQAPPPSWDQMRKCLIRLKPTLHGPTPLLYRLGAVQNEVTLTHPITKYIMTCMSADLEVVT

CC(C)(C)C(O)C(=O)NC1CCCCCC=CC2CC2(C(=O)NS(=O)(=O)C2CC2)NC(=O)C2CC(OC(=O)N3Cc4cccc(F)c4C3)CN2C1=O (single isomer, unassigned) [Compound 248]
EC50 ([1]; Huh-7, GS4.3 cells, 72 h): < 1000 nM

CC(C)S(=O)(=O)NC(=O)[C@@]12C[C@H]1/C=C\CCCCC[C@H](NC(=O)OC1CCCC1)C(=O)N1C[C@H](OC(=O)N3CCc4ccccc4C3)C[C@H]1C(=O)N2 [Compound 118]
EC50 ([1]; Huh-7, 72 h): < 100 nM

CS(=O)(=O)NC(=O)[C@@]12C[C@H]1/C=C\CCCCC[C@H](NC(=O)OC1CCCC1)C(=O)N1C[C@H](OC(=O)N3CCc4ccccc4C3)C[C@H]1C(=O)N2 [Compound 119]
EC50 ([1]; Huh-7, 72 h): < 1000 nM

COc1ccc(S(=O)(=O)NC(=O)[C@@]23C[C@H]2/C=C\CCCCC[C@H](NC(=O)OC2CCCC2)C(=O)N2C[C@H](OC(=O)N4CCc5ccccc5C4)C[C@H]2C(=O)N3)cc1 [Compound 120]
EC50 ([1]; Huh-7, 72 h): < 100 nM

CC(C)(C)OC(=O)N[C@H]1CCCCC/C=C\[C@@H]2C[C@@]2(C(=O)O)NC(=O)C2C[C@@H](OC(=O)N3Cc4c(Cl)ccc(Cl)c4C3)CN2C1=O (some centres unmarked) [Compound 144]
EC50 ([1]; Huh-7, GS4.3 cells, 72 h): < 10000 nM

CC(C)(C)OC(=O)N[C@H]1CCCCC/C=C\[C@@H]2C[C@@]2(C(=O)NS(=O)(=O)C2CC2)NC(=O)C2C[C@@H](OC(=O)N3Cc4c(Cl)ccc(Cl)c4C3)CN2C1=O (some centres unmarked) [Compound 145]
EC50 ([1]; Huh-7, GS4.3 cells, 72 h): < 100 nM

O=C(N[C@H]1CCCCC/C=C\[C@@H]2C[C@@]2(C(=O)O)NC(=O)C2C[C@@H](OC(=O)N3Cc4ccncc4C3)CN2C1=O)OC1CCCC1 (some centres unmarked) [Compound 146]
EC50 ([1]; Huh-7, GS4.3 cells, 72 h): > 10000 nM

C[C@H](NC(=O)O[C@@H]1CC2C(=O)N[C@]3(C(=O)NS(=O)(=O)C4CC4)C[C@H]3/C=C\CCCCC[C@H](NC(=O)OC(C)(C)C)C(=O)N2C1)c1ccc(F)cn1 (some centres unmarked) [Compound 149]
EC50 ([1]; Huh-7, GS4.3 cells, 72 h): > 10000 nM

O=C(N[C@H]1CCCCC/C=C\[C@@H]2C[C@@]2(C(=O)NS(=O)(=O)C2CC2)NC(=O)C2C[C@@H](OC(=O)N3Cc4ccncc4C3)CN2C1=O)OC1CCCC1 (some centres unmarked) [Compound 155]
EC50 ([1]; Huh-7, GS4.3 cells, 72 h): < 1000 nM

N[C@H]1CCCCC/C=C\[C@@H]2C[C@@]2(C(=O)NS(=O)(=O)C2CC2)NC(=O)C2C[C@@H](OC(=O)N3Cc4c(Cl)ccc(Cl)c4C3)CN2C1=O (some centres unmarked) [Compound 156]
EC50 ([1]; Huh-7, GS4.3 cells, 72 h): < 1000 nM

Cc1ccccc1S(=O)(=O)NC(=O)[C@@]12C[C@H]1/C=C\CCCCC[C@H](NC(=O)OC(C)(C)C)C(=O)N1C[C@H](OC(=O)N3Cc4cccc(F)c4C3)CC1C(=O)N2 (some centres unmarked) [Compound 157]
EC50 ([1]; Huh-7, GS4.3 cells, 72 h): < 100 nM

CN(C)c1ccc(S(=O)(=O)NC(=O)[C@@]23C[C@H]2/C=C\CCCCC[C@H](NC(=O)OC2CCCC2)C(=O)N2C[C@H](OC(=O)N4CCc5ccccc5C4)C[C@H]2C(=O)N3)cc1 [Compound 183]
EC50 ([1]; Huh-7, 72 h): < 100 nM

Cc1noc(C)c1S(=O)(=O)NC(=O)[C@@]12C[C@H]1/C=C\CCCCC[C@H](NC(=O)OC1CCCC1)C(=O)N1C[C@H](OC(=O)N3CCc4ccccc4C3)C[C@H]1C(=O)N2 [Compound 187]
EC50 ([1]; Huh-7, 72 h): < 1000 nM

COc1cccc(S(=O)(=O)NC(=O)[C@@]23C[C@H]2/C=C\CCCCC[C@H](NC(=O)OC2CCCC2)C(=O)N2C[C@H](OC(=O)N4CCc5ccccc5C4)C[C@H]2C(=O)N3)c1 [Compound 188]
EC50 ([1]; Huh-7, 72 h): < 100 nM

O=C1N[C@]2(C(=O)NS(=O)(=O)C3CC3)C[C@H]2/C=C\CCCCC[C@H](Nc2c(N3C4CCC3CC4)c(=O)c2=O)C(=O)N2C[C@H](OC(=O)N3Cc4cccc(F)c4C3)C[C@@H]12 [Compound 199]
EC50 ([1]; Huh-7, 72 h): < 10000 nM

N[C@H]1CCCCC/C=C\[C@@H]2C[C@@]2(C(=O)NS(=O)(=O)Nc2ccc(Cl)cc2)NC(=O)[C@@H]2C[C@@H](OC(=O)N3Cc4ccccc4C3)CN2C1=O [Compound 203]
EC50 ([1]; Huh-7, 72 h): > 10000 nM

O=C(N[C@@H]1CCCCC/C=C\[C@@H]2C[C@]2(C(=O)NS(=O)(=O)N2CCC(F)(F)C2)NC(=O)C2C[C@H](OC(=O)N3Cc4ccccc4C3)CN2C1=O)OC1CCCC1 (some centres unmarked) [Compound 227]
EC50 ([1]; Huh-7, GS4.3 cells, 72 h): < 100 nM

O=C1N[C@]2(C(=O)NS(=O)(=O)C3CC3)C[C@H]2/C=C\CCCCC[C@H](NC(=S)NC2CCCC2)C(=O)N2CC(OC(=O)N3Cc4cccc(F)c4C3)C[C@@H]12 (some centres unmarked) [Compound 240]
EC50 ([1]; Huh-7, GS4.3 cells, 72 h): < 1000 nM

O=C1N[C@]2(C(=O)NS(=O)(=O)C3CC3)C[C@H]2/C=C\CCCCC[C@H](Nc2c(N3CCC3)c(=O)c2=O)C(=O)N2CC(OC(=O)N3CCc4ccccc4C3)C[C@@H]12 (some centres unmarked) [Compound 242]
EC50 ([1]; Huh-7, GS4.3 cells, 72 h): < 10000 nM

CC(C)(C)OC(=O)N[C@H]1CCCCC/C=C\[C@@H]2C[C@@]2(C(=O)Nc2ccccc2Cl)NC(=O)[C@@H]2CCCN2C1=O [Compound 2309]
IC50 ([2]; Table 22): < 1000 nM

CC(C)(C)OC(=O)N[C@H]1CCCCC/C=C\[C@@H]2C[C@@]2(C(=O)NCc2cccc(C(=O)O)c2)NC(=O)[C@@H]2CCCN2C1=O [Compound 2310]
IC50 ([2]; Table 22): < 1000 nM

C[C@@H](NC(=O)[C@@]12C[C@H]1/C=C\CCCCC[C@H](NC(=O)OC(C)(C)C)C(=O)N1CCC[C@H]1C(=O)N2)c1ccccc1 [Compound 2311]
IC50 ([2]; Table 22): < 1000 nM

COc1cccc(NC(=O)[C@@]23C[C@H]2/C=C\CCCCC[C@H](NC(=O)OC(C)(C)C)C(=O)N2CCC[C@H]2C(=O)N3)c1 [Compound 2312]
IC50 ([2]; Table 22): < 1000 nM

Cc1ccc([S@+]([O-])NC(=O)[C@@]23C[C@H]2/C=C\CCCCC[C@H](NC(=O)OC(C)(C)C)C(=O)N2C[C@H](OC(=O)N4Cc5ccccc5C4)C[C@H]2C(=O)N3)cc1 [Compound 2602]
IC50 ([2]; Table 25): < 10000 nM

Cc1ccc([S+]([O-])NC(=O)C23CC2C=CCCCCCC(NC(=O)OC(C)(C)C)C(=O)N2CC(OC(=O)N4Cc5ccccc5C4)CC2C(=O)N3)cc1 (centres unmarked) [Compound 2603]
IC50 ([2]; Table 25): < 10000 nM

Cyclopentyl (1aR,9S,19aR)-15-(3-chlorophenoxy)-10,18-dioxo-19a-(phenylsulfonylcarbamoyl)-1a,2,3,4,5,6,7,8,9,10,12,17,17a,18,19,19a-hexadecahydro-1H-2,5-diaza-bicyclo[13.1.0]hexadec-1(15)-eno[5,4-b]isoquinolin-9-ylcarbamate [Compound 2010]
IC50 [2]: < 10000 nM
